Assay results taken from patent publication US8580321B2, “Method for reducing the effects of chemotherapy using flagellin related polypeptides” (priority 2003, dated 2013).

Key:
[1] = system: mice treated with total body gamma radiation; test: Mouse survival after total body gamma irradiation (radioprotection); format: in vivo; details: for 30-day survival, 11 Gy / 30-day survival, 14 Gy: s.c. 5.0 μg/mouse (0.2 mg/kg); for 30-day survival, 11 Gy: 1 hour before 11 Gy; for 30-day survival, 14 Gy: 1 hour before 14 Gy
Experimental: Whole body irradiation of mice with 15 Gy gamma radiation caused death within 8 days from GI syndrome providing a conventional model of radiation induced damage of GI tract. To test whether flagellin was capable of protecting GI epithelium from IR, we tested the effect of i.v.-injected flagellin on the dynamics of mouse lethality after 15 Gy of radiation. […] Irradiation was done 4 hours post treatment. As expected, control irradiated mice (that received PBS i.v.) died between 5 and 8 days post-treatment. […] Intravenous, intraperitoneal and subcutaneous delivery of 0.2 mg/kg of flagellin followed by 13 Gy irradiation afforded similar degree of protection, leading to 85-90% 30-day survival of mice (data not shown). While not being bound by theory, flagellin may be a radioprotectant due to its activation of NF-κB, which presumably acts as an inhibitor of apoptotic death.
The experiments were done similarly to the above-described ones (FIGS. 14 and 15), however, instead of 15Gy, mice received 10Gy, the dose that caused 100% killing in control group by day 13 (FIG. 6).
In order to further estimate the dependence of radioprotective activity of flagellin on the time of treatment, mice were injected at several time points relative to the moment of gamma-irradiation. Experiments were performed essentially as explained above, using intraperitoneal injection of 5 μg/mouse (0.2 mg/kg) of full-length flagellin or, for control mice, 5 μg/mouse (0.2 mg/kg) of bacterial RNA polymerase. The experiments were performed using the NIH-Swiss mouse strain. […] Only −1 h graph is shown for clarity, however, both timepoints (−1 and −2 h) provide similar degree and dynamics of survival.
We next obtained an estimate of radiation dose-dependent protection for flagellin. As shown above (FIG. 7), treatment with flagellin was sufficient for 100% protection against 10 Gy gamma-irradiation (this dose causes death from hematopoietic syndrome) and 90% 30-day survival at 13 Gy (both hematopoietic and GI syndromes). Experiments were performed as described above, using flagellin 5 μg/mouse (0.2 mg/kg), intraperitoneally injected 1 h before irradiation.
As shown above, full-length flagellin provides protection from both hematopoietic and gastrointestinal syndromes. The radioprotective potential of flagellin fragments was similarly tested after gamma-irradiation with 11 Gy (dose that induces hematopoietic syndrome-associated mortality in mice) or 14 Gy (dose that causes death from GI syndrome). Mice (10 animals per group) were injected subcutaneously with 5.0 μg/mouse (0.2 mg/kg) of flagellin or its fragments, AA′ or BB′, and gamma-irradiated 1 hour later.
In order to explore the limits of radioprotection provided by the AA′ fragment, we irradiated mice with 17 Gy and 20 Gy single doses of total body gamma-radiation.
(§1) We tested the ability of AA′ to protect mice that were exposed to it. A group of 20 NIH-Swiss mice were subcutaneously injected with 5 μg/mouse (0.2 mg/kg) of AA′. A second injection of a equal dose of AA′ was administered after 21 (10 mice) and 28 days (another 10 mice), with the time elapsed being sufficient for formation of antibodies. The second injection of AA′ was followed by 13 Gy of whole-body gamma irradiation (1 h post-injection).
Repetitive irradiation within a short period of time may be common, for example, in space radiation events and in clinical radiotherapy regimens. We tested the ability of the AA′ flagellin fragment to protect mice from sub-lethal (4 treatments of 3 Gy) and 100% lethal (4 treatments of 4 Gy) regimens of fractionated gamma-irradiation. Fragment AA′ or saline buffer was given to NIH-Swiss female mice before every irradiation (once a day for 4 days). AA′ was administered as described above for single-dose irradiation (5 μg/mouse, given subcutaneously 1 h before irradiation). […]
We have extensively confirmed that AA′ protects NIH-Swiss and ICR mice from radiation. […]

[2] = system: small intestinal epithelium of irradiated mice; test: Pathomorphological analysis of small intestine and skin after gamma irradiation; format: in vivo, mouse; details: for intestinal morphology 5 days after 14 Gy: pretreated mice, villi/crypt structure; for radiation-induced disappearance of sebaceous glands: skin, 5 days after 14 Gy
Experimental: Tissue samples of intestinal mucosa were taken 5 days after 14 Gy irradiation from mice pretreated with flagellin and control mice. Control animals were treated with 5.0 μg/mouse (0.2 mg/kg) bacterial RNA-polymerase. […] Tissue samples (small intestine and skin from the back) were also obtained from mice treated with the AA′ fragment. The results shown in FIG. 17 are areas of typical morphology observed over a set of at least 3 mice.
Flagellin (and CBLB502) may induce NF-κB activity via binding to TLR5. Accordingly, CBLB502-mediated radioprotection may be dependent on the presence and activity of TLR5. MOLF/Ei mice are a known natural model of TLR5 deficiency (Sebastiani G., et. al., Genomics. 2000 Mar. 15; 64(3):230-40). To verify that CBLB502-mediated radioprotection is indeed TLR5-dependent, we tested the protection of small intestine from radiation by CBLB502 in MOLF/Ei and NIH-Swiss mice (FIG. 35). Both strains of mice were given 0.2 mg/kg CBLB502 (AA′) or PBS 0.5 hr before 15 Gy of gamma-irradiation. The samples of small intestine were obtained 4 days after irradiation, stained by hematoxylin-eosin and subjected to pathomorphological analysis.

[3] = format: in vivo, mouse; details: for antibody level at 21 day: 21 days after injection
Experimental: as §1
We also performed an ELISA determination of antibody titers in order to quantify the effect that AA′ has on the immune status of the organism. 96-well plates were coated with flagellin or AA′, […], […], and incubated overnight at +4° C. Blood serum samples collected from mice were added to the wells in several dilutions and incubated overnight followed by 6 hrs reaction with secondary goat anti-mouse IgG HPO-conjugate antibodies. Measurements were performed using a spectrophotometer with a 414 nm filter.

NIH-Swiss mice = format: in vivo, mouse; details: repeated administration
Text: Overall immunogenicity of a protein may determines its suitability for repeated use. Antibodies generated by immune system are capable of reducing the therapeutic activity of the protein and also may induce anaphylactic reaction upon second exposure if IgE antibodies are produced against the protein. Thus, any reduction in the amount and variety of antibodies compared to full-length flagellin is an improvement. Accordingly, after repeated introduction of flagellin or its fragments we monitored; a) efficiency of radioprotection afforded at second exposure; b) local and general allergic reactions; and c) antibody titer.
as §1

NF-κB = test: EMSA of NF-κB translocation / DNA binding in A549 cells; details: for inducing NF-κB translocation: nuclear extracts of treated A549 lung cancer cells
[4] = 0.2 mg/kg 0.5 hr before 15 Gy, samples 4 days after irradiation
[5] = 5 μg/mouse (0.2 mg/kg) i.p. 1 h before 15 Gy
[6] = 5 μg/mouse i.p. 1 h before irradiation, estimate

AA′: flagellin fragment (1-177)-Linker-(402-505), SEQ ID NO: 8
protection against fractionated gamma-irradiation ([1]; 5 μg/mouse s.c. 1 h before every irradiation, 4 treatments of 3 Gy or 4 Gy, NIH-Swiss female mice): significant protection
survival at day 10, Balb/c mice ([1]; 0.2 mg/kg 30 minutes before 10 Gy, vehicle 0%): 100%
time of mortality at 17 Gy ([1]; 17 Gy, control mice 6-7 day mortality): 10 to 15 days
delay of death after supralethal irradiation ([1]; 17 and 20 Gy, versus inactive fragment control): significantly delayed
survival at day 30, all tested strains ([1]; 129/Sv, DBA/2, Balb/c, CD2F1, 0.2 mg/kg 30 minutes before 10 Gy, vehicle 0-25%): 50-100%
effect of NS398 on radioprotection ([1]; LPS 2 mg/kg or AA′ 0.2 mg/kg s.c. 1 hr before 13 Gy, with NS398 1 mg/kg i.p., NIH-Swiss): not
30-day survival, 11 Gy [1]: 100%
30-day survival, 14 Gy [1]: 100%
30-day survival after second exposure to AA′ ([1]; second s.c. injection 0.2 mg/kg after 21 or 28 days, 13 Gy 1 h post-injection, NIH-Swiss): 100%
mortality at 17 Gy ([1]; single dose 17 Gy total body): 100%
mortality at 20 Gy ([1]; single dose 20 Gy total body): 100%
intestinal morphology after 15 Gy, NIH-Swiss (TLR5 wild type) mice [2, 4]: preservation of intestinal morphology
intestinal morphology after 15 Gy, TLR5-deficient MOLF/Ei mice [2, 4]: no improving effect
intestinal morphology 5 days after 14 Gy [2]: near-normal intestinal morphology
radiation-induced disappearance of sebaceous glands [2]: prevented
immunogenicity of the original protein removed ([3]; AA′ versus flagellin): > 95%
reduction of immunogenicity compared to the original protein ([3]; AA′ versus flagellin): approximately 25 ×
increase of antibody level at 28 days over 21 day ([3]; serum): about 10%
antibody level at 21 day ([3]; serum): ~0.8 mg/mL
local allergic reaction or anaphylaxis (NIH-Swiss mice): no local allergic reaction or anaphylaxis
NF-κB Stimulation (NF-κB; A549 cells, 1 μg/ml, 45 min, EMSA of whole cell extracts): Yes
level of NF-κB translocation, fragments versus flagellin (NF-κB; EMSA, A549 cells): comparable
inducing NF-κB translocation (NF-κB; EMSA): capable of inducing NF-κB translocation

flagellin: Salmonella dublin FliC flagellin, 505 amino acids, SEQ ID NO: 1; recombinant full-length protein
7-day survival at 15 Gy [1, 5]: 100%
30-day survival at 15 Gy [1, 5]: 0%
DMF30 [1, 6]: 1.75-1.8
LD50/30 (radiation dose, flagellin-treated mice) [1, 6]: 13.5-14 Gy
protection from 10Gy (HP syndrome) ([1]; 5 μg/mouse, 10Gy): complete protection
protection against radiation by gavage delivery ([1]; 50 μg by gavage 1 h before 13 Gy): No protection
30-day survival, parenteral routes ([1]; 0.2 mg/kg i.v., i.p., i.m. or s.c., 1 hr before 13 Gy, NIH-Swiss): 85-90%
30-day survival of mice ([1]; 0.2 mg/kg intravenous, intraperitoneal or subcutaneous, followed by 13 Gy): 85-90%
protection against 10 Gy gamma-irradiation ([1]; 10 Gy (hematopoietic syndrome)): 100%
30-day survival at 13 Gy ([1]; 13 Gy): 90%
protection from 10 Gy ([1]; administered 24 hours before 10 Gy): 100%
survival after 13 Gy irradiation ([1]; i.p. 5 μg/mouse (0.2 mg/kg), injected 1 or 2 hours before, NIH-Swiss mice): ~90%
protection, 4 h timepoint ([1]; i.p. 5 μg/mouse, injected 4 h before 13 Gy, NIH-Swiss): somewhat lower protection
protective effect against 13 Gy induced death ([1]; i.p. 5 μg/mouse, injected 24 hours before 13 Gy): no protective effect
survival after 15 Gy ([1]; i.v., irradiation 4 hours post treatment, 15 Gy, PBS controls died between 5 and 8 days): lived significantly longer
radioprotectant effect from 13Gy ([1]; injected 1-4 h before 13Gy): effective as a radioprotectant
approximate DMF (30-day survival) ([1]; mouse, in vivo): greater than 1.5
30-day survival, 11 Gy [1]: 100%
30-day survival, 14 Gy [1]: 100%
morphology of small intestinal epithelium after 15 Gy ([2]; i.v. 0.25 mg/kg, 15 Gy, HE stained sections): close to normal morphology
intestinal morphology 5 days after 14 Gy [2]: near-normal intestinal morphology
radiation-induced disappearance of sebaceous glands [2]: prevented
antibody level at 21 day ([3]; serum): around 20 mg/ml
antibody level at 28 days ([3]; serum, 28 days after injection): around 20 mg/ml
local allergic reaction or anaphylaxis (NIH-Swiss mice): no local allergic reaction or anaphylaxis
inducing NF-κB translocation (NF-κB; EMSA): capable of inducing NF-κB translocation
